# Measured values taken from patent publication US9914969B2, “Fads regulation” (CORNELL UNIVERSITY, priority 2012, dated 2018).
# Entries after “also recorded” stand apart in the source; their conditions may differ.
# Assays:
# FADS1 expression = FADS1 expression in lymphoblasts after drug treatment (qRT-PCR); assay type: cell-based, human; conditions: 24 hours; for FADS1 response to drug, D/D vs I/I haplotype homozygotes (in words): lymphoblasts, 1 μNI GW3965, 20 μM rosiglitazone
# Procedure: Immortalized B-lymphocyte (lymphoblast) cell lines from Japanese HapMap participants were obtained from the Coriell Institute for Medical Research, and used within 10 passages of receipt from the repository. Cells were grown in RPMI 1640 with 2 mM L-alanyl-glutamine (Sigma) and 15% fetal bovine serum (media and serum obtained from HyClone) in a humidified environment at 37° C. with 5% CO2. All experiments were conducted on cells grown and treated in parallel in identical media and growth conditions. […] RNA was extracted using the RNeasy kit (Qiagen), and RNA quality was checked by agarose gel electrophoresis to verify RNA integrity and by 260/280 nm ratios on a NanoDrop 2000 (Thermo Scientific). cDNA was prepared using the High Capacity cDNA Reverse Transcription Kit (Applied Biosystems) according to the manufacturer's protocol.
# (§1) Quantitative real-time PCR was carried out using SYBR Green Master Mix (Roche) on a LightCycler 480 instrument (Roche). PCR primers were obtained from Integrated DNA Technologies (sequences available upon request), except for 18S, which was obtained from Qiagen as a QuantiTect Primer Assay. PCR reaction efficiency was calculated from standard curves, and reactions were assessed by both melting curves and by running on agarose gels to verify reaction products and the absence of primer-dimers. Quantitative cycle (Cq) values were determined using LightCycler 480 SW1.5.0SP3 software, version 1.5.0.39 (Roche). […] Statistical significance of differences in fold changes between genotypes in response to cell treatments (normalized to vehicle treatment for each genotype) was assessed by the Mann-Whitney U test. Bootstrapping and randomization techniques were used in REST 2009 software (Qiagen) to calculate significance of fold changes normalizing both genotypes to basal expression in I/I allele homozygotes.
# Follow-up experiments were carried out in Japanese HapMap lymphoblast cell lines homozygous for the D/D haplotype associated with FADS1 expression, or homozygous for the I/I haplotype. All available D/D haplotype homozygote cell lines were used (n=5), as well as randomly chosen I/I allele homozygote cell lines (n=11).
# To investigate the possibility of a causal genetic variation in a transcription factor binding site, cells were treated with drugs acting directly or indirectly on PPARγ or SREBP-1c.
# FADS2 expression = FADS2 expression in lymphoblasts after drug treatment (qRT-PCR); assay type: cell-based, human; conditions: 24 hours
# Procedure: Immortalized B-lymphocyte (lymphoblast) cell lines from Japanese HapMap participants were obtained from the Coriell Institute for Medical Research, and used within 10 passages of receipt from the repository. Cells were grown in RPMI 1640 with 2 mM L-alanyl-glutamine (Sigma) and 15% fetal bovine serum (media and serum obtained from HyClone) in a humidified environment at 37° C. with 5% CO2. All experiments were conducted on cells grown and treated in parallel in identical media and growth conditions. […]
# as §1, with “Bootstrapping and randomization techniques were used in REST 2009 software (Qiagen) to calculate significance of fold changes normalizing both genotypes to basal expression in I/I allele homozygotes.” left out
# [1] = 5 μNI simvastatin, normalized to vehicle
SMILES,"FADS1 response to drug, D/D vs I/I haplotype homozygotes (in words) (FADS1 expression; [1])","FADS2 response to treatment (in words) (FADS2 expression; I/I and D/D lymphoblasts, 20 μM rosiglitazone)","upregulation (induction) of FADS1 higher for the D/D haplotype than for I/I (FADS1 expression; D/D vs I/I haplotype homozygote lymphoblasts, 5 μNI simvastatin, 1 μNI GW3965) [%]","final FADS1 expression after treatment, difference between genotypes (in words) (FADS1 expression; D/D vs I/I lymphoblasts, normalized to basal I/I expression)","upregulation of FADS1 (FADS1 expression; I/I haplotype homozygote lymphoblasts, 5 μNI simvastatin, 1 μNI GW3965, normalized to vehicle)","FADS2 expression increase in D/D haplotype homozygotes compared with I/I (in words) (FADS2 expression; lymphoblasts, normalized to vehicle)"
CN(CCOc1ccc(CC2SC(=O)NC2=O)cc1)c1ccccn1 (stereo not shown) [rosiglitazone],no response,no response,,,,
O=C(O)Cc1cccc(OCCCN(Cc2cccc(C(F)(F)F)c2Cl)CC(c2ccccc2)c2ccccc2)c1 [GW3965],significantly greater fold increase,,25,did not significantly differ; also recorded: no longer significantly different,about two,even more
